The values below come from patent US4794104A, “Pharmaceutical compositions containing ACTH fragments for the therapy of shock conditions and of respiratory and cardiocirculatory insufficiencies” (priority 1986, dated 1988).

Data set [1] has as its system hypovolemic shock (severe hypotension induced by bleeding) in rats. Description: Hypovolemic shock by bleeding in anesthetized rats: mean arterial pressure and survival after i.v. bolus. It counts as in vivo, female Wistar rats. To be noted: for Mean arterial pressure, 15-30 min. after treatment / Mean arterial pressure, after bleeding / Mean arterial pressure, before bleeding: mean ± S.E.; for Mean arterial pressure, after bleeding: before treatment; for Mean arterial pressure, before bleeding: baseline before bleeding. As to the method:
Intact and adrenalectomized female Wistar rats (Nossan, Correzzano, Milano, Italy) weighing 250 to 300 g, were used. Following anesthetization and heparinization a common carotid artery and an iliac vein were cannulated in rats. Arterial blood pressure was recorded by means of a pressure transducer (Statham P23 Db) connected to a polygraph (Battaglia-Rangoni, Bologna, Italy). […] Hypovolemic shock was produced by intermittently withdrawing blood from the venous catheter until mean arterial pressure fell to 16-30 mm Hg. […] Following bleeding and mean blood pressure stabilization in the range of 16-30 mm Hg, animals were given intravenous bolus of either ACTH fragments. Control animals were intravenously injected with the same volume of saline (0.1 ml/100 g of body weight).

Data set [2] in a line: Toxicity and side-effects of ACTH fragments (general statement).
The subject of the next data set is shock. To be noted: in vivo; cited from earlier work.
The mark [3] stands for this setting: group later given 160 μg/kg i.v.
The mark [4] stands for this setting: group later given 40 μg/kg i.v.
The mark [5] stands for this setting: group later given 80 μg/kg i.v.

ACTH (1-17) [ACTH-(1-17)]: in data set [1] (160 μg/kg i.v. after bleeding), the “No. of deaths 120 min. after treatment” value was 0 and the “Mean arterial pressure, 15-30 min. after treatment” value stood at 41.50 ± 3.75 mm Hg. Moreover, in data set [1] (setting [3]), the “Mean arterial pressure, after bleeding” value was 15.75 ± 2.29 mm Hg and the “Mean arterial pressure, before bleeding” value is recorded as 57.50 ± 7.17 mm Hg.

Consider “ACTH(25-39) (NGAEDESAEAFPLEF; Corticotropin; UniProt P01189 162-176, looked up, fragment)”, for which, in data set [1] (160 μg/kg i.v. after bleeding), the “No. of deaths 120 min. after treatment” value amounted to 1 and the “Mean arterial pressure, 15-30 min. after treatment” value was found to be 25.50 ± 4.40 mm Hg. In data set [1] (setting [3]), the “Mean arterial pressure, after bleeding” value was determined as 11.50 ± 1.34 mm Hg and the “Mean arterial pressure, before bleeding” value was found to be 78.17 ± 7.25 mm Hg.

As to “ACTH (4-10) (MEHFRWG; Corticotropin; UniProt P01189 141-147, looked up, fragment) [ACTH-(4-10)]”, in data set [1] (160 μg/kg i.v. after bleeding), the “No. of deaths 120 min. after treatment” value was found to be 0 and the “Mean arterial pressure, 15-30 min. after treatment” value was determined as 47.25 ± 6.18 mm Hg. Besides, in data set [1] (setting [3]), the “Mean arterial pressure, after bleeding” value was found to be 13.75 ± 2.53 mm Hg and the “Mean arterial pressure, before bleeding” value stood at 63.25 ±6.76 mm Hg.

On to ACTH (1-24) [ACTH-(1-24)], for which the “No. of deaths 120 min. after treatment” value in data set [1] (40 μg/kg i.v. after bleeding), in data set [1] (80 μg/kg i.v. after bleeding) and in data set [1] (160 μg/kg i.v. after bleeding) was 0 throughout. The “Mean arterial pressure, 15-30 min. after treatment” value is on record as 39.40 ± 6.32 mm Hg in data set [1] (40 μg/kg i.v. after bleeding), 59.48 ± 8.10 mm Hg in data set [1] (80 μg/kg i.v. after bleeding) and 75.80 ± 8.45 mm Hg in data set [1] (160 μg/kg i.v. after bleeding). Further, the results for the “Mean arterial pressure, after bleeding” value in data set [1] (setting [4]), in data set [1] (setting [5]) and in data set [1] (setting [3]) were 17.40 ± 2.68 mm Hg, 19.23 ± 3.65 mm Hg and 23.15 ± 2.90 mm Hg, respectively. In addition, the “Mean arterial pressure, before bleeding” value in data set [1] (setting [4]) was found to be 82.33 ± 11.73 mm Hg; in data set [1] (setting [5]), 80.15 ± 9.43 mm Hg; in data set [1] (setting [3]), 82.40 ± 10.75 mm Hg. In addition, the Toxicity / side-effects result in data set [2] was “substantially non-toxic”.

On to `C=CCN1CC[C@]23c4c5ccc(O)c4O[C@H]2C(=O)CC[C@@]3(O)[C@H]1C5` [naloxone], for which the “Dosage therapeutically active in shock” value in the data set on shock is “about 1 mg/kg”.

Regarding “ACTH (1-39) (SYSMEHFRWGKPVGKKRRPVKVYPNGAEDESAEAFPLEF; Corticotropin; UniProt P01189 138-176, looked up) [ACTH-(1-39), full-length ACTH (1-39)]”, in data set [1] (160 μg/kg i.v. after bleeding), the “No. of deaths 120 min. after treatment” value is recorded as 0 and the “Mean arterial pressure, 15-30 min. after treatment” value is 35.75 ± 5.65 mm Hg. Also, in data set [1] (setting [3]), the “Mean arterial pressure, after bleeding” value is recorded as 14.75 ± 2.32 mm Hg and the “Mean arterial pressure, before bleeding” value came to 88.25 ± 2.17 mm Hg.

For “ACTH (1-16) (SYSMEHFRWGKPVGKK; Corticotropin; UniProt P01189 138-153, looked up, fragment) [ACTH-(1-16)]”, in data set [1] (160 μg/kg i.v. after bleeding), the “No. of deaths 120 min. after treatment” value amounted to 0 and the “Mean arterial pressure, 15-30 min. after treatment” value is 54.50 ± 2.02 mm Hg. In data set [1] (setting [3]), the “Mean arterial pressure, after bleeding” value is listed as 15.50 ± 2.53 mm Hg and the “Mean arterial pressure, before bleeding” value is on record as 78.25 ± 12.46 mm Hg.

On to “ACTH (1-13) (SYSMEHFRWGKPV; Corticotropin; UniProt P01189 138-150, looked up, fragment) [ACTH-(1-13)]”, for which, in data set [1] (160 μg/kg i.v. after bleeding), the “No. of deaths 120 min. after treatment” value is 0 and the “Mean arterial pressure, 15-30 min. after treatment” value came out at 34.50 ± 1.32 mm Hg. In data set [1] (setting [3]), the “Mean arterial pressure, after bleeding” value was 15.75 ± 1.31 mm Hg and the “Mean arterial pressure, before bleeding” value turned out to be 66.25 ± 9.14 mm Hg.

With “ACTH (1-18) (SYSMEHFRWGKPVGKKRR; Corticotropin; UniProt P01189 138-155, looked up, fragment) [ACTH-(1-18)]”, in data set [1] (160 μg/kg i.v. after bleeding), the “No. of deaths 120 min. after treatment” value worked out at 0 and the “Mean arterial pressure, 15-30 min. after treatment” value is 38.50 ± 1.85 mm Hg. Further, in data set [1] (setting [3]), the “Mean arterial pressure, after bleeding” value is given as 15.00 ± 2.12 mm Hg and the “Mean arterial pressure, before bleeding” value came to 53.00 ± 4.88 mm Hg.
